The test system of experiment [1] is COLO 357 cells (K-ras mutated pancreatic cancer). The experiment is described as follows: MTT cell growth inhibition assay, COLO357. Format: cell-based. As to conditions: COLO357, 72 h; read-out: MTT Assay EC50 after 72 h. The procedure: (§1) COLO 357 cells (K-ras mutated pancreatic cancer) were seeded at a density of 3×10^3 cells per well in 96-well microtiter culture plates. After overnight incubation, medium was removed and replaced with fresh medium containing different concentrations of compounds (0-100 μmol/L) diluted from a 10 mmol/L stock. On completion of 72 hours of incubation, 20 μL of 3-(4,5-dimethylthiazol-2-yl)-2,5-diphenyltetrazolium bromide (MTT) solution (5 mg/mL in PBS) were added to each well and incubated further for 2 hours. Upon termination, the supernatant was aspirated and the MTT formazan formed by metabolically viable cells was dissolved in 100 μL of isopropanol. The plates were mixed for 30 minutes on a gyratory shaker, and absorbance was measured at 595 nm using a plate reader (TECAN, Durham, N.C.). A similar protocol was used for BxPC3 (wild type K-Ras pancreatic cancer), PC3 (prostate cancer) and HCT (colon cancer) cell lines.
(§2) Cells were plated as described above and allowed to attach overnight. The cells were replaced with fresh medium containing 25 μmol/L of Compound 1 and Compound 2 for 72 hours. The effect of Compound 1 and Compound 2 pretreatment on cell viability was examined by the MTT assay method as described above.

Experiment [2] relates to BxPC3 (wild type K-Ras pancreatic cancer). The experiment is described as follows: MTT cell growth inhibition assay, BxPC3. Format: cell-based. The following applies: BxPC3, 72 h; read-out: MTT Assay EC50 after 72 h. The procedure: as §1, §2
A further experiment relates to BxPC3. The experiment is described as follows: Quantification of apoptosis by ELISA, BxPC3. Format: cell-based. The following applies: BxPC3, 25 mmol/L, 72 hours; control 0.50. The procedure: (§3) The Cell Apoptosis ELISA Detection Kit (Roche, Palo Alto, Calif.) was used to detect apoptosis in COLO357 cells, with different treatments according to the manufacturer's protocol. Briefly, COLO357 cells were treated with […] of Compound 1 and Compound 2 for 72 hours. After treatment, the cytoplasmic histone DNA fragments from COLO 357 cells with different treatments were extracted and bound to immobilized anti-histone antibody.
(§4) Subsequently, the peroxidase-conjugated anti-DNA antibody was used for the detection of immobilized histone DNA fragments. After addition of substrate for peroxidase, the spectrophotometric absorbance of the samples was determined using ULTRA Multifunctional Microplate Reader (TECAN) at 405 nm. A similar protocol was used for BxPC3, PC3 and HCT116 cell lines.

The next experiment deals with HCT116. The experiment is described as follows: Quantification of apoptosis by ELISA, HCT116. The class given is cell-based. As to conditions: HCT116, 72 hours; control 0.35. The procedure:
as §3, §4
A general note: ELISA stands for enzyme-linked immunosorbent assay.

For the next experiment, the system named is COLO357 cells. The experiment is described as follows: Quantification of apoptosis by ELISA, COLO357. The following applies: COLO357, 72 hours; control 0.75. Format: cell-based. The procedure: as §3, §4
The subject of another experiment is HCT116 (colon cancer). The experiment is described as follows: MTT cell growth inhibition assay, HCT116. The class given is cell-based. As to conditions: HCT116, 72 h; read-out: MTT Assay EC50 after 72 h. The procedure:
as §1, §2

The test system of another experiment is Akt. As to the kind of experiment: Akt assay (ELISA based activity kit). The class given is biochemical. The procedure: Akt activity kit is an ELISA based activity kit that utilizes biotinylated peptide substrate (GRPRTSSFAEG) that is phosphorylated on second serine by Akt1, Akt2, Akt3, SGK and MSK1. Biotinylated Akt substrate and sample containing Akt are incubated in presence of ATP in the wells of a streptavidin coated 96-well plate, which allows for phosphorylation and substrate capture in a single step. The phosphorylated substrate is detected using phosphoserine detection antibody followed by HRP-antibody conjugate and color development with TMB substrate. Sensitivity is increased by addition of ELISA stop solution and relative activity is determined by reading dual absorbance at 450/540 nm or 450/595 nm. Inhibition profiles can be generated based on Akt activity in the presence and absence of test inhibitor(s).

A further experiment has as its system PC3. The experiment is described as follows: Quantification of apoptosis by ELISA, PC3. The class given is cell-based. As to conditions: PC3, 72 hours; control 0.50. The procedure:
as §3, §4

A further experiment relates to PC3 (prostate cancer). As to the kind of experiment: MTT cell growth inhibition assay, PC3. As to conditions: PC3, 72 h; read-out: MTT Assay EC50 after 72 h. The class given is cell-based. The procedure:
as §1, §2

For “Cu(II) complex of 2-amino-3-[(Z)—N′-(1H-indol-3-ylmethylidene)hydrazinecarbonyl]-propanoic acid [Compound 1]”, the EC50 – broadly, the midpoint of the concentration-response curve – in experiment [1] worked out at 14.6 µM; in experiment [2], 28.9 µM; in the experiment on HCT116 (colon cancer), 11.7 µM; with PC3 (prostate cancer), 28.8 µM. For the same substance, the “O.D. Of Histone/DNA at 405 nm” value in the experiment on BxPC3 is listed as 2.20; with HCT116, 1.60; with COLO357 cells, 1.90; in the experiment on PC3 it was 0.60. Moreover, the Akt inhibitory activity entry with Akt is “micromolar range”.
“Cu(II) complex of (2Z)-2-(N-hydroxyimino)-N′-[(1Z)-1H-indol-3-ylmethylidene]-1,3-dioxobutanehydrazide [Compound 2]”: the EC50 worked out at 14.3 µM in experiment [1], 18.9 µM in [2], 14.1 µM with HCT116 (colon cancer) and 16.6 µM in the experiment with PC3 (prostate cancer). For the same substance, the “O.D. Of Histone/DNA at 405 nm” value with BxPC3 is on record as 1.80; in the experiment on HCT116, 1.75; in the experiment on COLO357 cells it was 2.00; with PC3, 1.90. Also, the Akt inhibitory activity entry in the experiment with Akt is listed as “micromolar range”.

These data come from patent US7781480B2, “Indole derivatives and their metal conjugates and uses thereof” (VLife Sciences Technologies Pvt. Ltd., priority 2007, dated 2010).
